Measurements taken from PMC12073238, “The α-Glucosidase Inhibition Activities of Phaeochromycins D and E Isolated from Marine Streptomyces sp. FJ0218” (Molecules, 2025).
Like-named read-outs stand apart in the source and are kept apart here.

How the values were obtained:
α-glucosidase [1] = target: T1, α-glucosidase (Saccharomyces cerevisiae, UniProt P53341); details: cited from earlier work
α-glucosidase [2] = target: T1, α-glucosidase; assay: inhibition kinetics of α-glucosidase, Lineweaver–Burk double-reciprocal plots; format: biochemical; details: compound 1 at 0.5 and 0.7 mM, compound 2 at 0.2 and 0.3 mM; for inhibition type: ρNPG 0.25-4.0 mM
Method: Louis, MO, USA) in the same PBS buffer. […] After being thoroughly mixed, the mixture was placed in a 37 °C constant temperature incubator for 15 min. […] Then, 80 μL of 200 mM Na2CO3 solution was added to complete the reaction. Finally, the absorbance value (OD) was measured at 405 nm using a microplate reader. The experiment used 20 μL of PBS as the background control instead of 20 μL of α-glucosidase solution. Additionally, 20 μL of PBS was used as the negative control instead of the test sample. […] Each treatment was repeated three times. The α-glucosidase inhibitory activity was calculated using the following formula: Inhibitory rate (%) = [(An - As)/An] × 100, where As represents the absorbance of the sample reaction solution, and An represents the absorbance of the negative control. The IC50 values, the inhibitor concentration in mM that inhibits 50% of the enzyme activity, were determined graphically by interpolating from the inhibitions determined with different concentrations of compounds, through statistical analysis using SPSS 18.0. […] For compound 1, concentrations of 0.5 mM and 0.7 mM were used, while for compound 2, concentrations of 0.2 mM and 0.3 mM were selected. […] The enzyme reaction was performed using the conditions described above. Inhibition types were analyzed using double-reciprocal plots generated with Origin 2021.

[3] = system: small intestinal α-glucosidase; set-up: method as in PMID 26840363; details: small intestinal α-glucosidase in rats; cited from earlier work
MAPKAP kinase-2 = target: MAPKAP kinase-2; set-up: method as in PMID 16124774; details: weak inhibitors; cited from earlier work
HeLa cell line = system: HeLa cell line; set-up: method as in PMID 19190740; details: at a concentration of 10 μg/mL; cited from earlier work

T1 sequence (P53341 whole entry): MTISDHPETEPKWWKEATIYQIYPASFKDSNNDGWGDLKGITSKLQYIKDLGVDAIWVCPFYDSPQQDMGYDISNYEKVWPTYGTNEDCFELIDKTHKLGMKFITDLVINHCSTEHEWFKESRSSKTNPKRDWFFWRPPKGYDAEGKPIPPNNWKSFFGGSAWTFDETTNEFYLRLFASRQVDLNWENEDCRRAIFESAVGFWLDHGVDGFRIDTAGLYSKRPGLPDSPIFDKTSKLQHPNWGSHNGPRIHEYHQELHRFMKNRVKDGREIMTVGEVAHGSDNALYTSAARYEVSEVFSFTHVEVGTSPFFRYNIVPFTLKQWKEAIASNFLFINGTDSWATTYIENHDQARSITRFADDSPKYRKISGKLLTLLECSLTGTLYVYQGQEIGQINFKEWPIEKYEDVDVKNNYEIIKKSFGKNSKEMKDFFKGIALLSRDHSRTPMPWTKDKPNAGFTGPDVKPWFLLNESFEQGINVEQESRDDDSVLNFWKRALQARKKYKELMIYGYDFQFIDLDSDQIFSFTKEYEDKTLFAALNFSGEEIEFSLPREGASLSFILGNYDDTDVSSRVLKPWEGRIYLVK

**Q.** With `Cc1nc2c(cc(O)c3c(=O)c4ccccc4oc32)o1` [5-hydroxy-2-methyl-6H-xantheno[4,3-d]oxazol-6-one] as the molecule, how does the inhibition type (α-glucosidase [1]; kinetic analysis) read?
**A.** competitive inhibitor

**Q.** Which “effect on Km” value (α-glucosidase [2]) does the source give for `CCCc1cc(=O)c2c(CC(=O)O)cccc2o1` [Compound 1, phaeochromycin E] here?
**A.** Km decreases

**Q.** What about the “effect on Vmax” value (α-glucosidase [2]) of the same molecule?
**A.** decrease in Vmax

**Q.** And the inhibition type (α-glucosidase [2])?
**A.** uncompetitive inhibitor

**Q.** For `CCCc1cc(=O)c2c(CC(=O)CC(C)O)cccc2o1` (stereo not shown) [Compound 2, phaeochromycin D], which “effect on Km” value (α-glucosidase [2]) is on record?
**A.** keeping the Km constant

**Q.** And the “effect on Vmax” value (α-glucosidase [2])?
**A.** decreasing the 1/Vmax

**Q.** What about the inhibition type (α-glucosidase [2]) of the same molecule?
**A.** non-competitive inhibitor

**Q.** For `NS(=O)(=O)c1ccc(N/N=C/c2coc3ccccc3c2=O)cc1` [Compound 4d], which inhibition type (α-glucosidase [1]; Lineweaver–Burk plot analysis) is on record?
**A.** non-competitive mode

**Q.** For `O=C(OC[C@H]1O[C@@H](OC(=O)c2cc(O)c(O)c(OC(=O)c3cc(O)c(O)c(O)c3)c2)[C@H](OC(=O)c2cc(O)c(O)c(OC(=O)c3cc(O)c(O)c(O)c3)c2)[C@@H](OC(=O)c2cc(O)c(O)c(OC(=O)c3cc(O)c(O)c(O)c3)c2)[C@@H]1OC(=O)c1cc(O)c(O)c(OC(=O)c2cc(O)c(O)c(O)c2)c1)c1cc(O)c(O)c(OC(=O)c2cc(O)c(O)c(O)c2)c1` [Gallotannin], which inhibition type (α-glucosidase [1]) is on record?
**A.** parabolic mixed-type inhibition

**Q.** For `OC[C@@H]1[C@@H](O)[C@H](O)C[S@@+]1C[C@@H](O)[C@@H](O)[C@H](O)[C@@H](O)CO` [Neoponkoranol], which inhibition type [3] is on record?
**A.** strong competitive inhibition

**Q.** With `CCCc1cc(=O)c2c(Cc3cc(O)cc(=O)o3)cccc2o1` [Phaeochromycin C] as the molecule, how does the IC50 (MAPKAP kinase-2) read?
**A.** 130 µM

**Q.** For `CC(=O)CCc1ccc(O)cc1` [Raspberry ketone], which inhibition type (α-glucosidase [1]; binding reversibly and quickly) is on record?
**A.** non-competitively

**Q.** With `O=c1c(-c2ccc(O)cc2)coc2cc(O)ccc12` [daidzein] as the molecule, how does the inhibition type (α-glucosidase [1]) read?
**A.** non-competitive action

**Q.** For `O=c1c(-c2ccc(O)cc2)coc2cc(O)cc(O)c12` [genistein], which inhibition type (α-glucosidase [1]) is on record?
**A.** non-competitive action

**Q.** Which IC50 (MAPKAP kinase-2) does the source give for Phaeochromycin A here?
**A.** 39 µM

**Q.** For phaeochromycin H, which “inhibitory rate against the HeLa cell line” value (HeLa cell line) is on record?
**A.** 46.0%
